The text below walks through data of article PMC8326471, “Synthesis and biological evaluation of new pyrazolebenzene-sulphonamides as potential anticancer agents and hCA I and II inhibitors” (Turkish Journal of Chemistry, 2021).

Series [1] concerns HSC-3 oral squamous cell carcinoma cells. Kind of series: Cytotoxicity assay (MTT), HSC-3. In kind it is cell-based. The settings on record: Homo sapiens, tumor cell line, 48 h. As to the method: (§1) The cytotoxicity of the compounds 4a - 4j were assayed towards human tumor cell lines [gingival carcinoma (Ca9–22), oral squamous cell carcinoma (HSC-2)] and human normal oral cells [gingival fibroblasts (HGF), and periodontal ligament fibroblasts (HPLF)] as described [42, 54 – 56]. In brief, all cells were cultured in Dulbecco’s modified eagle’s medium (DMEM) supplemented with 10% fetal bovine serum (FBS). The following concentrations of the compounds in dimethylsulfoxide (DMSO) were added to the medium and incubated at 37 ° C for 48 h: 4a - 4j ([…]), melphalan (3.12, 6.25, 12.5, 25. 50, 100, 200 and […]) and 5-FU ([…]). The media that contained the same concentration of DMSO ([…], 0.03125, 0.0625, 0.125, 0.25, 0.5 or 1%) were used as controls since DMSO above 0.25% is cytotoxic. The viable cell numbers were determined by the 3-(4,5-dimethylthiazol-2-yl)-2,5-diphenyltetrazolium bromide (MTT) assay. The CC50 values were determined from dose-response curves.
(§2) Cytotoxicity’s of the compounds 4a - 4j were evaluated towards Ca9–22, HSC-2, HSC-3, and HSC-4 human oral squamous cell carcinoma cell lines as tumor cell lines and HGF, HPLF, and HPC human normal oral cells as nontumor cells (Table 1) according to the procedure in the literature [42, 54 – 56]. 5-Fluorouracil (5-FU) was used as a reference anticancer drug.

Series [2] is described as follows: Cytotoxicity assay (MTT), HPC normal cells. The format is cell-based. The settings on record: human, HPC normal oral cells, non-tumor cells. How it is done: as §1, §2
Series [3] is described as follows: Cytotoxicity assay, all non-tumor cells (mean). The settings on record: human, normal oral cells HGF, HPLF and HPC (mean of the three), read-out: Non-tumor cell lines CC50 mean (D). The format is cell-based. As to the method: as §1, §2
Series [4] relates to human oral squamous cell carcinoma cell lines (Ca9-22, HSC-2, HSC-3, HSC-4). Kind of series: Cytotoxicity assay, all tumor cell lines (mean, TS1, PSE1). The format is cell-based. The settings on record: mean of Ca9-22, HSC-2, HSC-3, HSC-4, read-out: Tumor cell lines CC50 mean (B). As to the method: as §1, §2
The tumor selectivity (TS1 and TS2) of each compound was calculated as described in previously reported literature procedures and these figures are presented in Table 1. Based on the TS1 values, 4f and 4g which have 2,5 and 2,4-dimethoxy substituents had the highest TS1 values in a series with 22.4 and 22.2, respectively. On the other hand, the 3,4,5-trimethoxy substituted compound 4i (TS1: 19.6) had the […] TS1 value. […] As expected, they were in accordance with the literature findings [16 – 18]. The second calculation (TS2) considered the differences of sensitivity between the malignant (Ca9–22) and non-malignant (HGF) cells derived from the same tissue (gingiva). According to TS2 values obtained, 4i (3,4,5-trimethoxy) had the highest TS2 value of 43.
The desired properties for a lead compound are being both markedly cytotoxic and selectively toxic for tumors. PSE1 reflects general cytotoxicity and selectivity potency of the compound towards all cells used, whereas PSE2 seems more specified since it was considered for the same origin cells. When the compounds tested towards OSCC lines were considered in terms of PSE2 values of the compounds. The best poly-methoxylated compounds were 4i (with 3,4,5-trimethoxy, PSE2 = 461.5) ˃ 4f (with 2,5-dimethoxy, PSE2 = 425.1) ˃ 4g (with 2,4-dimethoxy, PSE2 = 405.4) while the best mono-methoxylated derivative was 4b (with 4-methoxy, PSE2 = 205).

The target in the next series is hCA II (Homo sapiens, UniProt P00918). Nature of the series: Carbonic anhydrase enzyme assay (esterase activity), hCA II. In kind it is biochemical. The settings on record: for Ki: Lineweaver-Burk plot; for IC50: esterase activity, p-nitrophenyl acetate. From the text: (§3) Human CA isoforms (hCAI and hCAII) were purified by the sepharose - 4B – L - tyrosine sulfanilamide affinity segregation method as reported. […] Inhibitory effects of the compounds were investigated by measuring the esterase activity according to Verpoorte et al. as described in previous studies [61 – 63].
(§4) Vmax, maximal velocity; VImax, maximal velocity of inhibitor; I, inhibitor; Ki, the inhibitor constant.

The subject of series [5] is gingival carcinoma (Ca9-22) cells. Kind of series: Cytotoxicity assay (MTT), Ca9-22. The settings on record: for CC50: Homo sapiens, Ca9-22, tumor cell line, 48 h, MTT; for times of potency compared to 5-FU, Ca9-22: cytotoxicity relative to 5-FU. In kind it is cell-based, human. How it is done:
as §1, §2

Series [6] concerns HSC-4 oral squamous cell carcinoma cells. Kind of series: Cytotoxicity assay (MTT), HSC-4. The format is cell-based. The settings on record: Homo sapiens, tumor cell line, 48 h. How it is done:
as §1, §2

For a further series, the target named is hCA I (Homo sapiens, UniProt P00915). Kind of series: Carbonic anhydrase enzyme assay (esterase activity), hCA I. In kind it is biochemical. The settings on record: for Ki: Lineweaver-Burk plot; for IC50: esterase activity, p-nitrophenyl acetate.
hCA I, sequence (P00915 whole entry): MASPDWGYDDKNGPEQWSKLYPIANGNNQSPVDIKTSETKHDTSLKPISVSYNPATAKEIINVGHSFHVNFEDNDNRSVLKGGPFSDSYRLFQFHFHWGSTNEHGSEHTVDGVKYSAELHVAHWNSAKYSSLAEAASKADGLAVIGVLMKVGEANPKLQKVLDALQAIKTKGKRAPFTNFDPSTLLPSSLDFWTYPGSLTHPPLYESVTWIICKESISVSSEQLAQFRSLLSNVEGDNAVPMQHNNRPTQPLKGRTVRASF
From the text: as §3, §4

The nature of series [7]: Cytotoxicity assay (MTT), HPLF normal cells. In kind it is cell-based. The settings on record: human, HPLF periodontal ligament fibroblasts (normal oral cells), non-tumor cells. How it is done:
as §1, §2

Series [8] in a line: Cytotoxicity assay (MTT), HGF normal cells. In kind it is cell-based. The settings on record: human, HGF gingival fibroblasts (normal oral cells), non-tumor cells. As to the method: as §1, §2
Series [9] relates to oral squamous cell carcinoma (HSC-2) cells. Kind of series: Cytotoxicity assay (MTT), HSC-2. The settings on record: for CC50: Homo sapiens, HSC-2, tumor cell line, 48 h, MTT; for times of potency compared to 5-FU, HSC-2: cytotoxicity relative to 5-FU. The format is cell-based, human. As to the method:
as §1, §2

Each structure is given as a SMILES string.

Molecule `COc1cc(OC)c(C2=NN(c3ccc(S(N)(=O)=O)cc3)C(c3ccc4c(c3)OCO4)C2)cc1OC` (centres unmarked) [4h, 4-[5-(1,3-Benzodioxol-5-yl)-3-(2,4,5-trimethoxyphenyl)-4,5-dihydro-1H-pyrazol-1-yl]benzenesulphonamide] displayed a melting point of 191 to 193 °C. In series [1], the CC50 amounted to 21.3 µM. In series [2], this molecule returned a CC50 at 48 h of 400 µM. Further, in series [3], the CC50 at 48 h came out at 400 µM. Further, in [4], the CC50 stood at 211 µM. Moreover, at hCA II, affinity was put at a Ki of 9.3 ± 1.6 µM and the IC50 amounted to 14.3 µM. In series [5], this molecule showed a CC50 of 400 µM. The same molecule registered a CC50 in series [6] of 21.8 µM. On hCA I, this molecule came in with a Ki of 49.6 ± 1.9 µM and an IC50 of 13.8 µM. In series [7], the CC50 at 48 h was determined as 400 µM. Besides, in series [8], the CC50 at 48 h was determined as 400 µM. This molecule also showed a CC50 in series [9] of 400 µM.

`COc1cc(C2=NN(c3ccc(S(N)(=O)=O)cc3)C(c3ccc4c(c3)OCO4)C2)cc(OC)c1OC` (centres unmarked) [4i, 4-[5-(1,3-Benzodioxol-5-yl)-3-(3,4,5-trimethoxyphenyl)-4,5-dihydro-1H-pyrazol-1-yl]benzenesulphonamide] came in with a melting point of 212 to 214 °C. Also, in [1], the midpoint of cytotoxicity, the CC50, lay at 11.3 µM. In [2], the CC50 at 48 h was found to be 371 µM. Moreover, the CC50 at 48 h in series [3] is 285 µM. For the same molecule, the CC50 in series [4] is 14.6 µM. On hCA II, the affinity, expressed as Ki, was 24.1 ± 7.1 µM and inhibition was half-maximal at 12.5 µM (IC50). Besides, in [5], the CC50 came to 9.3 µM and the “times of potency compared to 5-FU, Ca9-22” value came out at 2.4. Besides, the “PSE2 times more potent than 5-FU” value in series [5] (PSE2 relative to reference drug 5-FU) was determined as 2.2. In [6], half-maximal cytotoxicity (CC50) was put at 6.7 µM. Moreover, at hCA I, the affinity, expressed as Ki, was 52.5 ± 1.8 µM and inhibition was half-maximal at 29.7 µM (IC50). Moreover, the midpoint of cytotoxicity in series [7], the CC50 at 48 h, lay at 83.7 µM. In [8], this molecule registered a CC50 at 48 h of 400 µM. Moreover, in series [9], the CC50 is 30.9 µM and the “times of potency compared to 5-FU, HSC-2” value was found to be 8.4.

In turn, `COc1cc(C2=NN(c3ccc(S(N)(=O)=O)cc3)C(c3ccc4c(c3)OCO4)C2)ccc1O` (centres unmarked) [4j, 4-[5-(1,3-Benzodioxol-5-yl)-3-(4-hydroxy-3-methoxyphenyl)-4,5-dihydro-1H-pyrazol-1-yl]benzenesulphonamide] gave a melting point of 161 to 163 °C. In addition, in series [1], the CC50 was 26.3 µM. Further, the CC50 at 48 h in [2] is 54.3 µM. Further, the CC50 at 48 h in series [3] is 65.2 µM. Besides, the half-maximal cytotoxic concentration (CC50) in series [4] is 21.7 µM. On hCA II, this molecule registered a Ki of 9.3 ± 1.9 µM and an IC50 of 20 µM. Also, in series [5], half-maximal cytotoxicity (CC50) was put at 17 µM and the “times of potency compared to 5-FU, Ca9-22” value worked out at 1.3. In series [6], this molecule came in with a CC50 of 16.8 µM. Also, at hCA I, the affinity corresponds to a Ki of 29.8 ± 9.4 µM and inhibition was half-maximal at 17.9 µM (IC50). Also, in series [7], it took 64.7 µM to reach half-maximal cytotoxicity (CC50 at 48 h). The molecule further registered a CC50 at 48 h in series [8] of 76.7 µM. For the same molecule, in series [9], the CC50 worked out at 26.7 µM and the “times of potency compared to 5-FU, HSC-2” value is recorded as 9.8.

For orientation: CC50 means the concentration at which the toxic effect on the cells reaches its halfway point. A word on the melting point: it is the temperature of the solid-liquid transition. The Ki is a measure of affinity in units of concentration, obtained from inhibition or displacement. A high value points to lower affinity. By IC50 is commonly meant the concentration that gives 50% inhibition.
